Measurements taken from ChEMBL document CHEMBL1287733, “Implication of the disulfide bridge in trypsin inhibitor SFTI-1 in its interaction with serine proteinases” (Bioorg Med Chem, 2010).
Activity calls are given as the source filed them. No cut-off for these calls is given here. Starred links: 1 amine or outer side, 2 acyl side, 3 side chain; linkers in the order of their positions; H or OH if unused. Non-standard residues stand in square brackets, D forms with d. Residues, ends and D or L forms follow the SMILES beside them. N(2-mercaptoethyl)Gly = O=C(CN(CCS[*:3])[*:1])[*:2]; hCys = N[C@@H](CCS)C(=O)O; Nphe = O=C(O)CNCc1ccccc1; Nlys = NCCCCNCC(=O)O

Legend:
Bos taurus [1] = organism: Bos taurus; assay: Inhibition of bovine chymotrypsin
Bos taurus [2] = organism: Bos taurus; assay: Inhibition of bovine trypsin

Ka (Bos taurus [1])	Ka (Bos taurus [2])	SMILES
3.11 ×10⁵ /M	–	CC[C@H](C)[C@@H]1NC(=O)[C@@H]2CCCN2C(=O)[C@@H]2CCCN2C(=O)[C@H]([C@@H](C)CC)NC(=O)[C@H](CO)NC(=O)CN(Cc2ccccc2)C(=O)[C@H]([C@@H](C)O)NC(=O)[C@@H](C(C)(C)S)NC(=O)[C@H](CCCNC(=N)N)NC(=O)CNC(=O)[C@H](CC(=O)O)NC(=O)[C@@H]2CCCN2C(=O)[C@H](Cc2ccccc2)NC(=O)[C@@H](C(C)(C)S)NC1=O
1.15 ×10⁵ /M	–	CC[C@H](C)[C@@H]1NC(=O)[C@@H]2CCCN2C(=O)[C@@H]2CCCN2C(=O)[C@H]([C@@H](C)CC)NC(=O)[C@H](CO)NC(=O)CN(Cc2ccccc2)C(=O)[C@H]([C@@H](C)O)NC(=O)[C@@H](C(C)(C)S)NC(=O)[C@H](CCCNC(=N)N)NC(=O)CNC(=O)[C@H](CC(=O)O)NC(=O)[C@@H]2CCCN2C(=O)[C@H](Cc2ccccc2)NC(=O)[C@H](CS)NC1=O
3.9 ×10⁸ /M	–	CC[C@H](C)[C@@H]1NC(=O)[C@@H]2CCCN2C(=O)[C@@H]2CCCN2C(=O)[C@H]([C@@H](C)CC)NC(=O)[C@H](CO)NC(=O)CN(Cc2ccccc2)C(=O)[C@H]([C@H](C)O)NC(=O)[C@H](CS)NC(=O)[C@H](CCCNC(=N)N)NC(=O)CNC(=O)[C@H](CC(=O)O)NC(=O)[C@@H]2CCCN2C(=O)[C@H](Cc2ccccc2)NC(=O)[C@H](CS)NC1=O
5.2 ×10⁶ /M	1.1 ×10¹⁰ /M	CC[C@H](C)[C@@H]1NC(=O)[C@@H]2CCCN2C(=O)[C@@H]2CCCN2C(=O)[C@H]([C@@H](C)CC)NC(=O)[C@H](CO)NC(=O)[C@H](CCCCN)NC(=O)[C@H]([C@@H](C)O)NC(=O)[C@@H]2CSSC[C@H](NC1=O)C(=O)N[C@@H](Cc1ccccc1)C(=O)N1CCC[C@H]1C(=O)N[C@@H](CC(=O)O)C(=O)NCC(=O)N[C@@H](CCCNC(=N)N)C(=O)N2
4.9 ×10⁶ /M	9.9 ×10⁹ /M	CC[C@H](C)[C@@H]1NC(=O)[C@@H]2CCCN2C(=O)[C@@H]2CCCN2C(=O)[C@H]([C@@H](C)CC)NC(=O)[C@H](CO)NC(=O)[C@H](CCCCN)NC(=O)[C@H]([C@@H](C)O)NC(=O)[C@H](CS)NC(=O)[C@H](CCCNC(=N)N)NC(=O)CNC(=O)[C@H](CC(=O)O)NC(=O)[C@@H]2CCCN2C(=O)[C@H](Cc2ccccc2)NC(=O)[C@H](CS)NC1=O
inactive	–	CC[C@H](C)[C@@H]1NC(=O)[C@@H]2CCCN2C(=O)[C@@H]2CCCN2C(=O)[C@H]([C@@H](C)CC)NC(=O)[C@H](CO)NC(=O)[C@H](Cc2ccccc2)NC(=O)[C@H]([C@@H](C)O)NC(=O)CN(CCS)C(=O)[C@H](CCCNC(=N)N)NC(=O)CNC(=O)[C@H](CC(=O)O)NC(=O)[C@@H]2CCCN2C(=O)[C@H](Cc2ccccc2)NC(=O)[C@H](CS)NC1=O (cyclo(CFPDGR[N(2-mercaptoethyl)Gly]TFSIPPI))
4.79 ×10⁸ /M	–	CC[C@H](C)[C@@H]1NC(=O)[C@@H]2CCCN2C(=O)[C@@H]2CCCN2C(=O)[C@H]([C@@H](C)CC)NC(=O)[C@H](CO)NC(=O)[C@H](Cc2ccccc2)NC(=O)[C@H]([C@@H](C)O)NC(=O)[C@H](CS)NC(=O)[C@H](CCCNC(=N)N)NC(=O)CNC(=O)[C@H](CC(=O)O)NC(=O)[C@@H]2CCCN2C(=O)[C@H](Cc2ccccc2)NC(=O)CN(CCS)C1=O (cyclo(CTFSIPPI[N(2-mercaptoethyl)Gly]FPDGR))
inactive	–	CC[C@H](C)[C@@H]1NC(=O)[C@@H]2CCCN2C(=O)[C@@H]2CCCN2C(=O)[C@H]([C@@H](C)CC)NC(=O)[C@H](CO)NC(=O)[C@H](Cc2ccccc2)NC(=O)[C@H]([C@@H](C)O)NC(=O)CN(CCS)C(=O)[C@H](CCCNC(=N)N)NC(=O)CNC(=O)[C@H](CC(=O)O)NC(=O)[C@@H]2CCCN2C(=O)[C@H](Cc2ccccc2)NC(=O)CN(CCS)C1=O (cyclo(DGR[N(2-mercaptoethyl)Gly]TFSIPPI[N(2-mercaptoethyl)Gly]FP))
–	inactive	CC[C@H](C)[C@@H]1NC(=O)[C@@H]2CCCN2C(=O)[C@@H]2CCCN2C(=O)[C@H]([C@@H](C)CC)NC(=O)[C@H](CO)NC(=O)[C@H](CCCCN)NC(=O)[C@H]([C@@H](C)O)NC(=O)CN(CCS)C(=O)[C@H](CCCNC(=N)N)NC(=O)CNC(=O)[C@H](CC(=O)O)NC(=O)[C@@H]2CCCN2C(=O)[C@H](Cc2ccccc2)NC(=O)CN(CCS)C1=O (cyclo(DGR[N(2-mercaptoethyl)Gly]TKSIPPI[N(2-mercaptoethyl)Gly]FP))
–	inactive	CC[C@H](C)[C@@H]1NC(=O)[C@@H]2CCCN2C(=O)[C@@H]2CCCN2C(=O)[C@H]([C@@H](C)CC)NC(=O)[C@H](CO)NC(=O)CN(CCCCN)C(=O)[C@H]([C@@H](C)O)NC(=O)CN(CCS)C(=O)[C@H](CCCNC(=N)N)NC(=O)CNC(=O)[C@H](CC(=O)O)NC(=O)[C@@H]2CCCN2C(=O)[C@H](Cc2ccccc2)NC(=O)CN(CCS)C1=O (cyclo(DGR[N(2-mercaptoethyl)Gly]T[Nlys]SIPPI[N(2-mercaptoethyl)Gly]FP))
inactive	–	CC[C@H](C)[C@@H]1NC(=O)[C@@H]2CCCN2C(=O)[C@@H]2CCCN2C(=O)[C@H]([C@@H](C)CC)NC(=O)[C@H](CO)NC(=O)CN(Cc2ccccc2)C(=O)[C@H]([C@@H](C)O)NC(=O)CN(CCS)C(=O)[C@H](CCCNC(=N)N)NC(=O)CNC(=O)[C@H](CC(=O)O)NC(=O)[C@@H]2CCCN2C(=O)[C@H](Cc2ccccc2)NC(=O)CN(CCS)C1=O (cyclo(DGR[N(2-mercaptoethyl)Gly]T[Nphe]SIPPI[N(2-mercaptoethyl)Gly]FP))
7.56 ×10⁹ /M	–	CC[C@H](C)[C@@H]1NC(=O)[C@@H]2CCCN2C(=O)[C@@H]2CCCN2C(=O)[C@H]([C@@H](C)CC)NC(=O)[C@H](CO)NC(=O)[C@H](Cc2ccccc2)NC(=O)[C@H]([C@@H](C)O)NC(=O)[C@H](CCS)NC(=O)[C@H](CCCNC(=N)N)NC(=O)CNC(=O)[C@H](CC(=O)O)NC(=O)[C@@H]2CCCN2C(=O)[C@H](Cc2ccccc2)NC(=O)[C@H](CCS)NC1=O (cyclo(DGR[hCys]TFSIPPI[hCys]FP))
